In series [1] the target is T1, Cytochrome P450 3A4 (Homo sapiens, UniProt P08684). Put plainly: Inhibition of recombinant human CYP3A4 expressed in baculosomes preincubated for 10 mins followed by cofactor addition measured every minute for 10 mins using 7-benzyloxyquinoline as substrate by CYPEX assay.
The target of series [2] is Cytochrome P450 2C19 (Homo sapiens, UniProt P33261). The series is described as follows: Inhibition of recombinant human CYP2C19 expressed in baculosomes preincubated for 10 mins followed by cofactor addition measured every minute for 10 mins using 3-butyryl-7-methoxycoumarin as substrate by CYPEX assay.
The nature of series [3]: Clearance in portal vein cannulated Sprague-Dawley rat blood. Particulars: whole blood.
Series [4] in a line: Volume of distribution at steady state in portal vein cannulated Sprague-Dawley rat model. The settings on record: in vivo.
Series [5] has as its target D(2) dopamine receptor (Homo sapiens, UniProt P14416). Put plainly: Displacement of [3H]-spiperone from human dopamine D2 receptor expressed in CHO-K1 cell membranes after 120 mins by liquid scintillation counter method. A general note: In a radioligand displacement assay an active substance lowers the binding of a labelled ligand.
Series [6] has as its target Cytochrome P450 2D6 (Homo sapiens, UniProt P10635). The series is described as follows: Inhibition of recombinant human CYP2D6 expressed in baculosomes preincubated for 10 mins followed by cofactor addition measured every minute for 10 mins using 4-methylaminomethyl-7-methoxycoumarin as substrate by CYPEX assay.
Series [7] addresses T2, Cytochrome P450 1A2 (Homo sapiens, UniProt P05177).
T2 sequence (P05177 whole entry): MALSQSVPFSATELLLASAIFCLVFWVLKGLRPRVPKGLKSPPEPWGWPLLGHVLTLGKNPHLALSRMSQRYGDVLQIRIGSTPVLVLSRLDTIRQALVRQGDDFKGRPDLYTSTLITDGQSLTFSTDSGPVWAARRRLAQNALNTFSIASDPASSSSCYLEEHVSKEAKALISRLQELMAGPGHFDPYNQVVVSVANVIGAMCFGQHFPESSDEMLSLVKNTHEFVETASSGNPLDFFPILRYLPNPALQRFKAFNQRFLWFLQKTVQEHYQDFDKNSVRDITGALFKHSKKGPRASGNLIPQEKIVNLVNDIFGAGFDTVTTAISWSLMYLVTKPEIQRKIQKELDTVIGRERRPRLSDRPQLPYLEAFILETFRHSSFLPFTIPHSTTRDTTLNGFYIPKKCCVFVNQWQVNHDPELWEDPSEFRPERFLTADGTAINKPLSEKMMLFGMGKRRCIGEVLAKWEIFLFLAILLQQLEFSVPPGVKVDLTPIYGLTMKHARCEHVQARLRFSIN
Put plainly: Inhibition of recombinant human CYP1A2 expressed in baculosomes preincubated for 10 mins followed by cofactor addition measured every minute for 10 mins using ethoxyresorufin as substrate by CYPEX assay.

Series [8] can be described thus: Permeability across apical to basolateral side in human Caco2 cells. Background: Caco-2 cells form a polarised layer with tight junctions and transporters.
In series [9] the target is Cytochrome P450 2C9 (Homo sapiens, UniProt P11712). The series is described as follows: Inhibition of recombinant human CYP2C9 expressed in baculosomes preincubated for 10 mins followed by cofactor addition measured every minute for 10 mins using 7-methoxy-4-trifluoromethylcoumarin-3-acetic acid as substrate by CYPEX assay.
Series [10] in a line: Half life in portal vein cannulated Sprague-Dawley rat model. Particulars: in vivo.
The nature of series [11]: in vitro. The settings on record: human, liver microsomes, CLH.
Series [12] can be described thus: Fraction unbound in Sprague-Dawley rat brain.
Series [13] in a line: Fraction unbound in Sprague-Dawley rat blood.
Series [14] in a line: Fraction absorbed in portal vein cannulated Sprague-Dawley rat model. Particulars: in vivo.
Series [15] in a line: in vitro. The settings on record: rat, liver microsomes, CLH.
Series [16] has as its target T1, Cytochrome P450 3A4. The series is described as follows: Inhibition of recombinant human CYP3A4 expressed in baculosomes preincubated for 10 mins followed by cofactor addition measured every minute for 10 mins using diethoxyflourescein as substrate by CYPEX assay.
For series [17], the target named is D(3) dopamine receptor (Homo sapiens, UniProt P35462). The series is described as follows: Displacement of [3H]-spiperone from human dopamine D3 receptor expressed in CHO-K1 cell membranes after 90 mins by liquid scintillation counter method.
Series [18] concerns the target Voltage-gated inwardly rectifying potassium channel KCNH2 (Homo sapiens, UniProt Q12809). Put plainly: Inhibition of human ERG tail current expressed in HEK293 cells after 5 mins by patch clamp assay. (In patch-clamp work, channel activity is measured electrically.)
Series [19] is described as follows: Solubility of compound. The series is classed as physicochemical.
For series [20], the target named is T3, Muscarinic acetylcholine receptor M1 (Homo sapiens, UniProt P11229).
T3 sequence (P11229 whole entry): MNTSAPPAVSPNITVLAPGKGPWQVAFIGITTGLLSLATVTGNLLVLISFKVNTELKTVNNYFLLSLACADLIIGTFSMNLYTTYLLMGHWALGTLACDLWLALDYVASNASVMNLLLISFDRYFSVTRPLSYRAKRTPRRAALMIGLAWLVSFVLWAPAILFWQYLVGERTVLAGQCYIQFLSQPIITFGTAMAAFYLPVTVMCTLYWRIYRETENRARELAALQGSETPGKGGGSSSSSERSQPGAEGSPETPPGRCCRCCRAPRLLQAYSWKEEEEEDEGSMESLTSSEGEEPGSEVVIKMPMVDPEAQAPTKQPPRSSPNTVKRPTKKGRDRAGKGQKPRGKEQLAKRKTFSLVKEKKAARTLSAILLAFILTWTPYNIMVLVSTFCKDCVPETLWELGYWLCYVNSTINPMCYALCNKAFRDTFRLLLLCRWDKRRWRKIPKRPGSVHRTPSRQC
The series is described as follows: Antagonist activity at recombinant human muscarinic M1 receptor expressed in CHO-K1 cells assessed as inhibition of acetylcholine induced calcium mobilization preincubated for 10 mins followed by acetylcholine addition measured after 1 hr by fluo-4 AM dye-based FLIPR assay. It is filed as functional, cell-based.

In series [21] the target is Muscarinic acetylcholine receptor M3 (Homo sapiens, UniProt P20309). The series is described as follows: Antagonist activity at recombinant human muscarinic M3 receptor expressed in CHO-K1 cells assessed as inhibition of acetylcholine induced calcium mobilization preincubated for 10 mins followed by acetylcholine addition measured after 1 hr by fluo-4 AM dye-based FLIPR assay. It is filed as functional, cell-based.

Series [22] has as its target D(1A) dopamine receptor (Homo sapiens) (UniProt P21728). The series is described as follows: Binding affinity to dopamine D1 receptor (unknown origin).
Series [23] concerns the target T4, D(4) dopamine receptor (Homo sapiens) (UniProt P21917).
T4 sequence (whole entry): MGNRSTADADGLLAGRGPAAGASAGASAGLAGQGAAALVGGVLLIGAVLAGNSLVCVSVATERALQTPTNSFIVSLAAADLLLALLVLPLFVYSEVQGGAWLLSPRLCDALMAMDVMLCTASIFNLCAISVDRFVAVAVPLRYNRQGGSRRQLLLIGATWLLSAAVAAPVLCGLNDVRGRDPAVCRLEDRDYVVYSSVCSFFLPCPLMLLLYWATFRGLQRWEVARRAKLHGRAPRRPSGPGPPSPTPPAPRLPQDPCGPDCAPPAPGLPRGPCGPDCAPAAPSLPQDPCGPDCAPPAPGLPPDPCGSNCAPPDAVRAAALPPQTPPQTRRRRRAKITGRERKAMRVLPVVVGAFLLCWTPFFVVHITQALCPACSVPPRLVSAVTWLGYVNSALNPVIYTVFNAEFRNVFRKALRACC
Put plainly: Binding affinity to dopamine D4 receptor (unknown origin).

The species named for series [24] is Homo sapiens. Put plainly: Selectivity ratio of IC50 for human ERG to Ki for human dopamine D3 receptor.

This is an account of results in ChEMBL document CHEMBL3774368, “1,2,4-Triazolyl octahydropyrrolo[2,3-b]pyrroles: A new series of potent and selective dopamine D3 receptor antagonists” (Bioorg Med Chem, 2016).

Active and inactive are the calls of the source. The rule behind the calls is not given here.

D(3) dopamine receptor, sequence (P35462 whole entry): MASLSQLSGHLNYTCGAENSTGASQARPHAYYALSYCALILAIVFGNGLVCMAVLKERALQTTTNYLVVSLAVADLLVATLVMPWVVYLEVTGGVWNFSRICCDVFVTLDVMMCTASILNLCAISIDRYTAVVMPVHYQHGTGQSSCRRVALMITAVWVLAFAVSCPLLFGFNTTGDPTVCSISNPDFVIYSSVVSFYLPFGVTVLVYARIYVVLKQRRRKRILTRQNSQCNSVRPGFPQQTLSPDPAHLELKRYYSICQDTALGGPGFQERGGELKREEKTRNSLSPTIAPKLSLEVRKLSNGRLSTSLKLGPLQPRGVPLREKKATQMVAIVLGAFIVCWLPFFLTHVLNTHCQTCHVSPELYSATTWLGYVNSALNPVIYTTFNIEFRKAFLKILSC
Cytochrome P450 2D6, sequence (P10635 whole entry): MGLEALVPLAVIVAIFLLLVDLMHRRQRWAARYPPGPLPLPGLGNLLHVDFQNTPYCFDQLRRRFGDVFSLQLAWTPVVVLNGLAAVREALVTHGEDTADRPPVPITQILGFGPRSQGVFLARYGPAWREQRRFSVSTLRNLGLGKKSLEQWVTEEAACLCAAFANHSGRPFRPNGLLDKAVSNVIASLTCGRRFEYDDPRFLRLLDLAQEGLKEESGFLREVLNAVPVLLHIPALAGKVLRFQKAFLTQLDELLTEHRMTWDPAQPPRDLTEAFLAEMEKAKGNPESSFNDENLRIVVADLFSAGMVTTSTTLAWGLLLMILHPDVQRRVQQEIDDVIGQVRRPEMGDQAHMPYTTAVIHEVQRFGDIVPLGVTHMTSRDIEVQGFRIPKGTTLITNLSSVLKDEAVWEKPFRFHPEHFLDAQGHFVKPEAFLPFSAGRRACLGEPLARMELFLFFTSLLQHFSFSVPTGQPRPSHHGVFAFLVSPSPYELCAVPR
T1 sequence (P08684 whole entry): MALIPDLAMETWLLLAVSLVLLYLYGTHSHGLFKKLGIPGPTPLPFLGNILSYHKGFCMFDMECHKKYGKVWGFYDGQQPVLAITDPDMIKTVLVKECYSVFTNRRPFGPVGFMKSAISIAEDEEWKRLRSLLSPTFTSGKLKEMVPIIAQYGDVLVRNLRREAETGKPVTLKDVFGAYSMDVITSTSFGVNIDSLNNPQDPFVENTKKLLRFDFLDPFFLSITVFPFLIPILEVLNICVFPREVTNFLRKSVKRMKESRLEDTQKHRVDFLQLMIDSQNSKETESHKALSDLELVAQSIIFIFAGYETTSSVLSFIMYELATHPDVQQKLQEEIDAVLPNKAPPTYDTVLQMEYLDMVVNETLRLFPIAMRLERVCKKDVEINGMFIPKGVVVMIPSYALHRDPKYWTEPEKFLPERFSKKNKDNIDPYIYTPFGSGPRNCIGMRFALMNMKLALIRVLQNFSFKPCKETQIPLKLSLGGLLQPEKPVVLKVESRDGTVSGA
Cytochrome P450 2C19, sequence (P33261 whole entry): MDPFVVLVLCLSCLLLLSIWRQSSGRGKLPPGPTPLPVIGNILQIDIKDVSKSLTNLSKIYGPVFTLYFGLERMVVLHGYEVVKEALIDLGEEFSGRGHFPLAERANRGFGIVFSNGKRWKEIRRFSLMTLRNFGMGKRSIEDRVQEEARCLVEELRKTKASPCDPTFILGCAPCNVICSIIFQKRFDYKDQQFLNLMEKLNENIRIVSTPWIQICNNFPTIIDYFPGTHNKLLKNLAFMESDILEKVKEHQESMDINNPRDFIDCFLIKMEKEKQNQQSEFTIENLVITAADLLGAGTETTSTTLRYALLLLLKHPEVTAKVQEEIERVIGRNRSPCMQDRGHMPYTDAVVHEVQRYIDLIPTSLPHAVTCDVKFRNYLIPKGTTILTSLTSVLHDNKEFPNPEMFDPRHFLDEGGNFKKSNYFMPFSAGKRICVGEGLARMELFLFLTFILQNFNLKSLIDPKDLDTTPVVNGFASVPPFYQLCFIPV
D(2) dopamine receptor, sequence (P14416 whole entry): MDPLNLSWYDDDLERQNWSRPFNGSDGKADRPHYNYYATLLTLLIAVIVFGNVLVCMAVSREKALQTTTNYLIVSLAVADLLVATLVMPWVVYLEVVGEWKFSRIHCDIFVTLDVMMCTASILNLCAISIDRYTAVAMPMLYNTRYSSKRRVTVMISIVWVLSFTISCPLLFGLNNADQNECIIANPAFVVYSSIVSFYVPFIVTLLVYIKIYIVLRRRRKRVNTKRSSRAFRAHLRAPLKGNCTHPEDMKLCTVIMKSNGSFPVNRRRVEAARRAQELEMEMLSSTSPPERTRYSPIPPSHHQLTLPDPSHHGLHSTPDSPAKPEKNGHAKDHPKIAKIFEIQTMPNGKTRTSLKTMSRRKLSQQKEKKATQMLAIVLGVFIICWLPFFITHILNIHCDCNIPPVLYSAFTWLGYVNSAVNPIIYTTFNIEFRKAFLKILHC
Cytochrome P450 2C9, sequence (P11712 whole entry): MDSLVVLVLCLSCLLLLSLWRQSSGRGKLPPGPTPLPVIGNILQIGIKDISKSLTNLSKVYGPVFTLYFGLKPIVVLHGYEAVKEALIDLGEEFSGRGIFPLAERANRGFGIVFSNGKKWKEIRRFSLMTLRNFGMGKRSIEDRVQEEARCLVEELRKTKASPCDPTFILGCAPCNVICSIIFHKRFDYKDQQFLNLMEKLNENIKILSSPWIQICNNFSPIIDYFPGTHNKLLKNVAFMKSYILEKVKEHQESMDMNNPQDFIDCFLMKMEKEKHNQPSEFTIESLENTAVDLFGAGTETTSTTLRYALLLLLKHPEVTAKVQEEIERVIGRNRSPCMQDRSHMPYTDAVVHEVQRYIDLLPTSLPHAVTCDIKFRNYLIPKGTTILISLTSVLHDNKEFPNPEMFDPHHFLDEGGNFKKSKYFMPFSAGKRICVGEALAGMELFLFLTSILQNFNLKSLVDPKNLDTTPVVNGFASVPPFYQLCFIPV
D(1A) dopamine receptor (Homo sapiens), sequence (P21728 whole entry): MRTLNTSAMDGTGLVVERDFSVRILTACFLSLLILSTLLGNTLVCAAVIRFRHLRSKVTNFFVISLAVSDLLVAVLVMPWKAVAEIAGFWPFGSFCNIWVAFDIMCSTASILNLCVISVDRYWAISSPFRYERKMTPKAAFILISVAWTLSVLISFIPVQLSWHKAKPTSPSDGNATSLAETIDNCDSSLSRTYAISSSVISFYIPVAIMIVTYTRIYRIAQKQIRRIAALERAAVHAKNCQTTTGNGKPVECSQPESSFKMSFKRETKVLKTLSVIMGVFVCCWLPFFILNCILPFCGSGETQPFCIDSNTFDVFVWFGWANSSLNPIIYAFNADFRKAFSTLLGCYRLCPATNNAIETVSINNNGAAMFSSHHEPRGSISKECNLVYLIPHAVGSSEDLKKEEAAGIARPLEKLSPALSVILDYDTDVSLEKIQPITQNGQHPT
Voltage-gated inwardly rectifying potassium channel KCNH2, sequence (Q12809 whole entry): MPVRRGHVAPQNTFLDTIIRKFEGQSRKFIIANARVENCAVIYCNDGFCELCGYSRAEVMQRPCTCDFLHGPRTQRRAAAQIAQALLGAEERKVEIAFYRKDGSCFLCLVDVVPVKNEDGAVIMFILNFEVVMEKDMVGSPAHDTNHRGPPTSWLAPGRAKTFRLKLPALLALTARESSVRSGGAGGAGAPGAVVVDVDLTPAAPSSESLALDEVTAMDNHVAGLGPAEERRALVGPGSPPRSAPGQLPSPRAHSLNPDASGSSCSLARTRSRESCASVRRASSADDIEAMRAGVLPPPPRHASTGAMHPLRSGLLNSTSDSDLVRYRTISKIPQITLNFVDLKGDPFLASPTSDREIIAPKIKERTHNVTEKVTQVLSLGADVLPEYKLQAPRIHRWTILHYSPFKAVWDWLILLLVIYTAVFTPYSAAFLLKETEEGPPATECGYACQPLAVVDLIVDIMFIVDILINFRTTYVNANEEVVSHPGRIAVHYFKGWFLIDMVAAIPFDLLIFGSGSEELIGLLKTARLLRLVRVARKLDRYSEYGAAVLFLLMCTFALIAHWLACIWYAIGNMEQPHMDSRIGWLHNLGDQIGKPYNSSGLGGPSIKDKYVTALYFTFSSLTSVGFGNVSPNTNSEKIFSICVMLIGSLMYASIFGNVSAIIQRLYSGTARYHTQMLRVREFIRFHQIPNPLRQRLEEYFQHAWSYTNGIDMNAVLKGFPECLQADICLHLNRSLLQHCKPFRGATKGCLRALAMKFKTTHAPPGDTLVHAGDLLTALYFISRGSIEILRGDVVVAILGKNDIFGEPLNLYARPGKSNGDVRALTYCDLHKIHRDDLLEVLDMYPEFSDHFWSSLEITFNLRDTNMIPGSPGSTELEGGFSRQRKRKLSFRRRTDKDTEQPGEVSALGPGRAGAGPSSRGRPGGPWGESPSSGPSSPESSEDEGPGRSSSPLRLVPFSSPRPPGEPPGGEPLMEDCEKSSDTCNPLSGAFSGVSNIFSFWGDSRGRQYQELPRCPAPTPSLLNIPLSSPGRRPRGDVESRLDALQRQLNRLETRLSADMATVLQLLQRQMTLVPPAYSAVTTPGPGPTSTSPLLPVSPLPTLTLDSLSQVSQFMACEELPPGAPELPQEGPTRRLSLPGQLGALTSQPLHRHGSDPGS
Muscarinic acetylcholine receptor M3, sequence (P20309 whole entry): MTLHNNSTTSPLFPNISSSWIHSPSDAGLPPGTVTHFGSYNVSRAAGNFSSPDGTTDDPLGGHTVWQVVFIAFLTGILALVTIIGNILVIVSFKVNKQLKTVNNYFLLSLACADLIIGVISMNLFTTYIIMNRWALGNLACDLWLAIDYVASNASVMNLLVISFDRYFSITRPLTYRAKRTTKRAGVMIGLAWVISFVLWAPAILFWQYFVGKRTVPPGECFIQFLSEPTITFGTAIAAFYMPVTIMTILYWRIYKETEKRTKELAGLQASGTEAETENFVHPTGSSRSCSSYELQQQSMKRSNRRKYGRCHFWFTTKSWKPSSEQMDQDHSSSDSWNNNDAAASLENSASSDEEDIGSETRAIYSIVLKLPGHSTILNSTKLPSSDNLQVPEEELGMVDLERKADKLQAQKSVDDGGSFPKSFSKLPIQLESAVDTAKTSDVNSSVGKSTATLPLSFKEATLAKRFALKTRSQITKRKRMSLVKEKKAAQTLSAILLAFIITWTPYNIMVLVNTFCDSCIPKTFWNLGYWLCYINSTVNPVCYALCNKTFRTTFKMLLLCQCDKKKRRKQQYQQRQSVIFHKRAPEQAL

The IC50 is the midpoint of a concentration-inhibition curve. The clearance is a measure of how efficiently the substance is removed, as volume per time. A high value points to efficient removal. As usually defined, the Vd is a proportionality between amount in the body and measured concentration, not a real space. A lower Vd goes with little distribution into tissue. One may read the Ki as the dissociation constant of the complex between target and ligand, obtained from inhibition or displacement. A word on the Papp A→B: it is how fast a substance crosses the layer from the apical side. Lower therefore signals slow passage. By half-life is commonly meant the time in which the quantity being followed falls by half. A low value points to rapid decline. What is called microsomal CLint is the capacity of the preparation to metabolise the compound, expressed as a volume cleared per time. A higher microsomal CLint goes with faster metabolism. What is called fraction unbound is the share of the substance not bound to proteins or other matrix. For the compound `Cc1ncoc1-c1nnc(SCCCN2CC3CCN(c4ccc(F)cc4)C3C2)n1C` (stereo in doubt; 9a), the IC50 in series [1], in series [2], in [6], in series [7], in [9] and in [16] was > 5000 nM each time. The clearance in [3] was 53 mL/min/kg. In addition, the Vd in [4] was 1.2 L/kg. The compound also showed a Ki in series [5] of 126 nM. Further, in series [8] (Caco-2, permeability), the Papp A→B came out at 17.5 ×10⁻⁶ cm/s. Besides, the half-life in [10] was 18 min. The microsomal CLint at 0.5 µM in [11] is 27 µL/min/mg; in series [15], 136 µL/min/mg. For the same compound, the values for the unbound share (fraction unbound) in series [12] and in series [13] were 0.095 and 0.14, respectively. Further, the Fa in [14] amounted to 22%.
One may read the solubility as the concentration that dissolves in the medium under given conditions. Low values mean a poorly soluble substance, high ones a readily soluble substance. Regarding `Cc1ncoc1-c1nnc(SCCCN2CC3CCN(c4cccc(C#N)c4)C3C2)n1C` (stereo in doubt; 12a), the Ki in series [17] was 0.631 nM; in series [5], 31.6 nM. In addition, the IC50 in series [18] was < 100 nM. Moreover, the solubility in series [19] is > 2200 µg/mL.
On to `Cc1ncoc1-c1nnc(SCCCN2CC3CCN(c4cccc(C#N)c4)C3C2)n1C` (stereo in doubt; 12b), for which the values for the Ki in series [17] and in series [5] were 6.31 nM and 631 nM, respectively. The compound also gave an IC50 in series [18] of 794 nM.
`Cn1c(SCCCN2CC3CCN(c4ccc(C(F)(F)F)cc4)C3C2)nnc1-c1cnccn1` (stereo in doubt; 17b): the IC50 in series [1], in series [2], in [6], in series [7], in [9] and in [16] was > 2000 nM throughout. Further, in series [5], affinity was put at a Ki of 158 nM. Further, the microsomal CLint at 0.5 µM in [11] and in series [15] was > 700 µL/min/mg each time.
Turning to `CC(C)Oc1ccccc1N1CCC2CN(CCCSc3nnc(-c4cnccn4)n3C)CC21` (stereo in doubt; 35b), the figures for the Ki in series [17] and in series [5] were 7.94 nM and 251 nM, respectively. Moreover, the IC50 in series [1], in series [2], in series [6], in series [7], in series [9] and in [16] was > 1000 nM throughout. Moreover, the microsomal CLint at 0.5 µM in [11] and in series [15] was > 750 µL/min/mg in each case. Further, the fraction unbound in [12] was determined as 0.13; in series [13], 0.024.
For the compound `Cn1c(SCCCN2CC3CCN(c4ccc(F)cc4F)C3C2)nnc1-c1cnccn1` (stereo in doubt; 36b), the Ki in [17] is 3.98 nM; in series [5], 316 nM. Also, the half-maximal inhibitory concentration (IC50) in [1], in series [2], in series [6], in series [7], in series [9] and in series [16] was > 1000 nM in each case. The microsomal CLint at 0.5 µM in series [11] and in [15] was > 650 µL/min/mg each time.
As for `Cn1c(SCCCN2CC3CCN(c4ccccc4C(F)(F)F)C3C2)nnc1-c1cccnc1` (stereo in doubt; 52a) [listing 1 of 2 here], the IC50 was 920 nM in [1]; > 3000 nM in series [2]; > 3000 nM in series [6]; > 3000 nM in series [7]; > 3000 nM in series [9]; > 3000 nM in [16]. The Ki is 398 nM in [5], 631 nM in [20] and 2190 nM in series [21]. The microsomal CLint at 0.5 µM in series [11] and in [15] was > 750 µL/min/mg throughout.
Regarding `Cn1c(SCCCN2CC3CCN(c4ccccc4C(F)(F)F)C3C2)nnc1-c1cccnc1` (stereo in doubt; 52a) [listing 2 of 2 here], the outcome in series [22] and in [23] was inactive.
For the compound `Cn1c(SCCCN2CC3CCN(c4ccc(C(F)(F)F)cc4)C3C2)nnc1-c1cc[nH]c(=O)c1` (stereo in doubt; 55b), the result in series [22] was inactive. In series [24], the Selectivity ratio was > 250.
In turn, `Cn1c(SCCCN2CC3CCN(c4ccc(C(F)(F)F)cc4)C3C2)nnc1-c1ccc(=O)n(C)c1` (stereo in doubt; 57a) came in with a permeability in series [8] (Caco-2) of 3.9 ×10⁻⁶ cm/s. Further, the values for the intrinsic clearance (microsomal CLint) at 0.5 µM in series [11] and in [15] were 152 µL/min/mg and 23 µL/min/mg, respectively.
